# In patent publication US9505762B2, “Purine derivatives as CB2 receptor agonists” (Hoffmann-La Roche Inc., priority 2013, dated 2016):
# Columns and labels:
# human CB2 receptors = human CB2 receptors (Homo sapiens (Human), UniProt P34972); experiment: functional cAMP assay, CB2; assay type: cell-based; conditions: CHO cells expressing human CB2
# human CB1 receptors = human CB1 receptors (Homo sapiens (Human), UniProt P21554); experiment: functional cAMP assay, CB1; assay type: cell-based; conditions: CHO cells expressing human CB1
# Sequence of human CB1 receptors (P21554 whole entry): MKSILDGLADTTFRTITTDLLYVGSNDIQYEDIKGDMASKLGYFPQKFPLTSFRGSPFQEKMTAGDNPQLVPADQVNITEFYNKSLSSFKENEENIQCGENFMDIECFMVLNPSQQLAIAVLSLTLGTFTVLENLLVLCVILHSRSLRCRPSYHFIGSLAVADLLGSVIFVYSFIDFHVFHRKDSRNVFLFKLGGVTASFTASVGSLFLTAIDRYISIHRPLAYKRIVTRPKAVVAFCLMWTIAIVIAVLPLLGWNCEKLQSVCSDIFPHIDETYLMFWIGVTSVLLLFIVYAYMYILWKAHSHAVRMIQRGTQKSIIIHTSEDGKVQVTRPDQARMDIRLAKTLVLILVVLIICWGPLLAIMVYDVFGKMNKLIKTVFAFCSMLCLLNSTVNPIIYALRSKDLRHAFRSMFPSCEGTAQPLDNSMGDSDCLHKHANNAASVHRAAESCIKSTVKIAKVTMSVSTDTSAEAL
# Sequence of human CB2 receptors (P34972 whole entry): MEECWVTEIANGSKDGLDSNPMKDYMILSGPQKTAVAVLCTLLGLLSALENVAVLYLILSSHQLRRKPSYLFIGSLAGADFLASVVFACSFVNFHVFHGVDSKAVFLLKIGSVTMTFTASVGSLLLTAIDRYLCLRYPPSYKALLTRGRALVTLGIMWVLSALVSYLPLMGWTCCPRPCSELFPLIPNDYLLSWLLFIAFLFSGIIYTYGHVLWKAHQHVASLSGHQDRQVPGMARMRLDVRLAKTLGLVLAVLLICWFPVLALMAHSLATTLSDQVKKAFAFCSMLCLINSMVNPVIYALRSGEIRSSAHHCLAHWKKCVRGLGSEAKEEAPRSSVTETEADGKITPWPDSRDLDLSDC
SMILES,EC50 (human CB2 receptors) [nM],EC50 (human CB1 receptors) [nM]
"COCCn1cnc2c(N3CC[C@H](O)C3)nc(C(C)(C)C)nc21 [Example 94, (3S)-1-[2-tert-butyl-9-(2-methoxyethyl)purin-6-yl]pyrrolidin-3-ol]",440,> 10000
"Cn1nnnc1Cn1cnc2c(N3CC[C@H](O)C3)nc(C(C)(C)C)nc21 [Example 95, (3S)-1-[2-tert-butyl-9-[(1-methyltetrazol-5-yl)methyl]purin-6-yl]pyrrolidin-3-ol]",363,> 10000
"Cc1nonc1Cn1cnc2c(N3CC[C@H](O)C3)nc(C(C)(C)C)nc21 [Example 96, (3S)-1-[2-tert-butyl-9-[(4-methyl-1,2,5-oxadiazol-3-yl)methyl]purin-6-yl]pyrrolidin-3-ol]",14.8,> 10000
"CC(C)(C)c1nc(N2CC[C@H](O)C2)c2ncn(Cc3ccccc3Cl)c2n1 [Example 97, (3S)-1-[2-tert-butyl-9-[(2-chlorophenyl)methyl]purin-6-yl]pyrrolidin-3-ol]",1.8,> 10000
"CC(C)(C)c1nc(N2CC[C@H](O)C2)c2ncn(Cc3c[nH]nc3C(F)(F)F)c2n1 [Example 98, (3S)-1-[2-tert-butyl-9-[[3-(trifluoromethyl)-1H-pyrazol-4-yl]methyl]purin-6-yl]pyrrolidin-3-ol]",22.3,> 10000
"CC(C)(C)c1nc(N2CC[C@H](O)C2)c2ncn(CCC(F)(F)F)c2n1 [Example 99, (3S)-1-[2-tert-butyl-9-(3,3,3-trifluoropropyl)purin-6-yl]pyrrolidin-3-ol]",228,> 10000
"CC(C)(C)c1nc(N2CC[C@H](O)C2)c2ncn(Cc3n[nH]cc3C(F)(F)F)c2n1 [Example 100, (3S)-1-[2-tert-butyl-9-[[4-(trifluoromethyl)-1H-pyrazol-3-yl]methyl]purin-6-yl]pyrrolidin-3-ol]",6.6,> 10000
"Cc1noc(Cn2cnc3c(N4CC[C@H](O)C4)nc(C(C)(C)C)nc32)n1 [Example 101, (3S)-1-[2-tert-butyl-9-[(3-methyl-1,2,4-oxadiazol-5-yl)methyl]purin-6-yl]pyrrolidin-3-ol]",370,> 10000
"CC1(O)CCN(c2nc(C(C)(C)C)nc3c2ncn3CCC(F)(F)F)C1 (stereo not shown) [Example 102, 1-[2-tert-butyl-9-(3,3,3-trifluoropropyl)purin-6-yl]-3-methylpyrrolidin-3-ol]",135,> 10000
"CC(=O)N[C@H]1CCN(c2nc(C(C)(C)C)nc3c2ncn3CCC(F)(F)F)C1 [Example 103, N-[(3S)-1-[2-tert-butyl-9-(3,3,3-trifluoropropyl)purin-6-yl]pyrrolidin-3-yl]acetamide]",211,> 10000
"CC(C)(C)c1nc(N2CCC3(COC3)C2)c2ncn(Cc3ncccc3Cl)c2n1 [Example 104, 7-[2-tert-butyl-9-[(3-chloropyridin-2-yl)methyl]purin-6-yl]-2-oxa-7-azaspiro[3.4]octane]",160,> 10000
"CC(C)(C)c1nc(N2CC(F)(F)C(F)(F)C2)c2ncn(Cc3ccccc3C(F)(F)F)c2n1 [Example 105, 2-tert-butyl-6-(3,3,4,4-tetrafluoropyrrolidin-1-yl)-9-[[2-(trifluoromethyl)phenyl]methyl]purine]",8.9,> 10000
"CC(C)(C)c1nc(N2CC(F)(F)C(F)(F)C2)c2ncn(Cc3ccccc3S(C)(=O)=O)c2n1 [Example 106, 2-tert-butyl-9-[(2-methylsulfonylphenyl)methyl]-6-(3,3,4,4-tetrafluoropyrrolidin-1-yl)purine]",39.9,> 10000
"CC(C)(C)Nc1nc(N2CCC(F)(F)C2)c2ncn(Cc3ccccc3Cl)c2n1 [Example 107, N-tert-butyl-9-[(2-chlorophenyl)methyl]-6-(3,3-difluoropyrrolidin-1-yl)purin-2-amine]",8.1,> 10000
"CC(C)(C)Nc1nc(N2CCC(F)(F)C2)c2ncn(Cc3ccccc3C(F)(F)F)c2n1 [Example 108, N-tert-butyl-6-(3,3-difluoropyrrolidin-1-yl)-9-[[2-(trifluoromethyl)phenyl]methyl]purin-2-amine]",6.7,> 10000
"CC(C)(C)Nc1nc(N2CCC(F)(F)C2)c2ncn(CCC(F)(F)F)c2n1 [Example 110, N-tert-butyl-6-(3,3-difluoropyrrolidin-1-yl)-9-(3,3,3-trifluoropropyl)purin-2-amine]",18.3,> 10000
"Cc1nonc1Cn1cnc2c(N3CCC(F)(F)C3)nc(NC(C)(C)C)nc21 [Example 111, N-tert-butyl-6-(3,3-difluoropyrrolidin-1-yl)-9-[(4-methyl-1,2,5-oxadiazol-3-yl)methyl]purin-2-amine]",14.7,> 10000
"CC(C)(C)Nc1nc(N2CCC(F)(F)C2)c2ncn(Cc3ncccc3Cl)c2n1 [Example 112, N-tert-butyl-9-[(3-chloropyridin-2-yl)methyl]-6-(3,3-difluoropyrrolidin-1-yl)purin-2-amine]",7.9,> 10000
"Cn1nnnc1Cn1cnc2c(N3CCC(F)(F)C3)nc(NC(C)(C)C)nc21 [Example 113, N-tert-butyl-6-(3,3-difluoropyrrolidin-1-yl)-9-[(1-methyltetrazol-5-yl)methyl]purin-2-amine]",249,> 10000
"CC(C)(C)Nc1nc(N2CCC(F)(F)C2)c2ncn(Cc3ccccc3S(C)(=O)=O)c2n1 [Example 114, N-tert-butyl-6-(3,3-difluoropyrrolidin-1-yl)-9-[(2-methylsulfonylphenyl)methyl]purin-2-amine]",45.5,> 10000
"Cc1noc(Cn2cnc3c(N4CCC(F)(F)C4)nc(NC(C)(C)C)nc32)n1 [Example 115, N-tert-butyl-6-(3,3-difluoropyrrolidin-1-yl)-9-[(3-methyl-1,2,4-oxadiazol-5-yl)methyl]purin-2-amine]",195,> 10000
"CC(C)(C)Nc1nc(N2CC[C@H](O)C2)c2ncn(Cc3ccccc3Cl)c2n1 [Example 116, (3S)-1-[2-(tert-butylamino)-9-[(2-chlorophenyl)methyl]purin-6-yl]pyrrolidin-3-ol]",12.1,> 10000
"CC(C)(C)Nc1nc(N2CC[C@H](O)C2)c2ncn(Cc3ccccc3C(F)(F)F)c2n1 [Example 117, (3S)-1-[2-(tert-butylamino)-9-[[2-(trifluoromethyl)phenyl]methyl]purin-6-yl]pyrrolidin-3-ol]",7.2,> 10000
"CC(C)(C)Nc1nc(N2CC[C@H](O)C2)c2ncn(Cc3ncccc3Cl)c2n1 [Example 118, (3S)-1-[2-(tert-butylamino)-9-[(3-chloropyridin-2-yl)methyl]purin-6-yl]pyrrolidin-3-ol]",152,> 10000
"Cc1nonc1Cn1cnc2c(N3CC[C@H](O)C3)nc(NC(C)(C)C)nc21 [Example 119, (3S)-1-[2-(tert-butylamino)-9-[(4-methyl-1,2,5-oxadiazol-3-yl)methyl]purin-6-yl]pyrrolidin-3-ol]",149,> 10000
"CC1(O)CCN(c2nc(NC(C)(C)C)nc3c2ncn3Cc2ccccc2Cl)C1 (stereo not shown) [Example 120, 1-[2-(tert-butylamino)-9-[(2-chlorophenyl)methyl]purin-6-yl]-3-methylpyrrolidin-3-ol]",108,> 10000
